Test results as given in ChEMBL document CHEMBL1938230, “6-Position optimization of tricyclic 4-quinolone-based inhibitors of glycogen synthase kinase-3β: discovery of nitrile derivatives with picomolar potency” (Bioorg Med Chem Lett, 2012).

Experiments:
Type in all cases: cell-free
[1] = target: Leucine-rich repeat serine/threonine-protein kinase 2 (Homo sapiens) (UniProt Q5S007); test: Inhibition of human LRRK2 in HL-60 cells lysate assessed as reduction of labeling of acyl-phosphate ATP probe at 100 nM
[2] = target: Cyclin-dependent kinase 6 (Homo sapiens) (UniProt Q00534); test: Inhibition of human CDK6 in HL-60 cells lysate assessed as reduction of labeling of acyl-phosphate ATP probe at 100 nM
Cyclin-dependent kinase 6 (Homo sapiens), sequence (Q00534 whole entry): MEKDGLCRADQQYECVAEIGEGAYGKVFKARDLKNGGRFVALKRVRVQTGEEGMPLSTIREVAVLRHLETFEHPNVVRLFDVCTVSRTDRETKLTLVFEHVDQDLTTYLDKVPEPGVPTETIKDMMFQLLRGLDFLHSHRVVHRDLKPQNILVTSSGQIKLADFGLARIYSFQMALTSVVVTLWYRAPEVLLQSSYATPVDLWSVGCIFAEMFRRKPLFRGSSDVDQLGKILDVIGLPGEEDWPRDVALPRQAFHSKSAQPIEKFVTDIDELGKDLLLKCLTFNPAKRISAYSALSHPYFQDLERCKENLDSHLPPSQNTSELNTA

[3] = target: T1, Serine/threonine-protein kinase A-Raf (Homo sapiens) (UniProt P10398); test: Inhibition of human ARAF in HL-60 cells lysate assessed as reduction of labeling of acyl-phosphate ATP probe at 100 nM
T1 sequence (whole entry): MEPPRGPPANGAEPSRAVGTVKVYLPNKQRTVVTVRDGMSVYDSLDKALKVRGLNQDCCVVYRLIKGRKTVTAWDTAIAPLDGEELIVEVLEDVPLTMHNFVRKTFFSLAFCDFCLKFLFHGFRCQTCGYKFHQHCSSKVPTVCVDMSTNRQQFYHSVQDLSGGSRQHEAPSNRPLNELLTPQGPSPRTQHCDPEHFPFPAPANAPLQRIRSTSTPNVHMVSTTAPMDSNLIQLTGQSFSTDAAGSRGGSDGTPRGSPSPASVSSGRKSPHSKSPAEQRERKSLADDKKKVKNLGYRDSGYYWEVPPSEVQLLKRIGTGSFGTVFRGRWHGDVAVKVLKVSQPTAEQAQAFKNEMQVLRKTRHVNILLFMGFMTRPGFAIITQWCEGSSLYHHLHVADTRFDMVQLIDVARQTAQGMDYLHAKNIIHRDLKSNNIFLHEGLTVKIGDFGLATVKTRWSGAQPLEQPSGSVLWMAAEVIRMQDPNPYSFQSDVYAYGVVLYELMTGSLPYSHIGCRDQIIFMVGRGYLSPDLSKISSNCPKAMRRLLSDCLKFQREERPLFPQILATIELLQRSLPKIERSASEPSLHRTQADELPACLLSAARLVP

[4] = target: Cyclin-dependent kinase 7 (Homo sapiens) (UniProt P50613); test: Inhibition of human CDK7 in HL-60 cells lysate assessed as reduction of labeling of acyl-phosphate ATP probe at 100 nM
Cyclin-dependent kinase 7 (Homo sapiens), sequence (P50613 whole entry): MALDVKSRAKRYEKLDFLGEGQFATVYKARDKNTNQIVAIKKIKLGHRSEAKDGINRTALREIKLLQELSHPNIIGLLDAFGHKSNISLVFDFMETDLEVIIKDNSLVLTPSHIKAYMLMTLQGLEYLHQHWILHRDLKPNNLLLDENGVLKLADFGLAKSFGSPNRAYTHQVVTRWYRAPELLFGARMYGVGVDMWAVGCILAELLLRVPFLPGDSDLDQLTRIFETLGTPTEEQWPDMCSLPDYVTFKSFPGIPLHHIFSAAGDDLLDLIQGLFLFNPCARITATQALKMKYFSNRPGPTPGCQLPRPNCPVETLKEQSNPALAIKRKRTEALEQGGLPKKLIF

[5] = target: T2, Mitogen-activated protein kinase kinase kinase 5 (Homo sapiens) (UniProt Q99683); test: Inhibition of human MAP3K5 in HL-60 cells lysate assessed as reduction of labeling of acyl-phosphate ATP probe at 100 nM
T2 sequence (whole entry): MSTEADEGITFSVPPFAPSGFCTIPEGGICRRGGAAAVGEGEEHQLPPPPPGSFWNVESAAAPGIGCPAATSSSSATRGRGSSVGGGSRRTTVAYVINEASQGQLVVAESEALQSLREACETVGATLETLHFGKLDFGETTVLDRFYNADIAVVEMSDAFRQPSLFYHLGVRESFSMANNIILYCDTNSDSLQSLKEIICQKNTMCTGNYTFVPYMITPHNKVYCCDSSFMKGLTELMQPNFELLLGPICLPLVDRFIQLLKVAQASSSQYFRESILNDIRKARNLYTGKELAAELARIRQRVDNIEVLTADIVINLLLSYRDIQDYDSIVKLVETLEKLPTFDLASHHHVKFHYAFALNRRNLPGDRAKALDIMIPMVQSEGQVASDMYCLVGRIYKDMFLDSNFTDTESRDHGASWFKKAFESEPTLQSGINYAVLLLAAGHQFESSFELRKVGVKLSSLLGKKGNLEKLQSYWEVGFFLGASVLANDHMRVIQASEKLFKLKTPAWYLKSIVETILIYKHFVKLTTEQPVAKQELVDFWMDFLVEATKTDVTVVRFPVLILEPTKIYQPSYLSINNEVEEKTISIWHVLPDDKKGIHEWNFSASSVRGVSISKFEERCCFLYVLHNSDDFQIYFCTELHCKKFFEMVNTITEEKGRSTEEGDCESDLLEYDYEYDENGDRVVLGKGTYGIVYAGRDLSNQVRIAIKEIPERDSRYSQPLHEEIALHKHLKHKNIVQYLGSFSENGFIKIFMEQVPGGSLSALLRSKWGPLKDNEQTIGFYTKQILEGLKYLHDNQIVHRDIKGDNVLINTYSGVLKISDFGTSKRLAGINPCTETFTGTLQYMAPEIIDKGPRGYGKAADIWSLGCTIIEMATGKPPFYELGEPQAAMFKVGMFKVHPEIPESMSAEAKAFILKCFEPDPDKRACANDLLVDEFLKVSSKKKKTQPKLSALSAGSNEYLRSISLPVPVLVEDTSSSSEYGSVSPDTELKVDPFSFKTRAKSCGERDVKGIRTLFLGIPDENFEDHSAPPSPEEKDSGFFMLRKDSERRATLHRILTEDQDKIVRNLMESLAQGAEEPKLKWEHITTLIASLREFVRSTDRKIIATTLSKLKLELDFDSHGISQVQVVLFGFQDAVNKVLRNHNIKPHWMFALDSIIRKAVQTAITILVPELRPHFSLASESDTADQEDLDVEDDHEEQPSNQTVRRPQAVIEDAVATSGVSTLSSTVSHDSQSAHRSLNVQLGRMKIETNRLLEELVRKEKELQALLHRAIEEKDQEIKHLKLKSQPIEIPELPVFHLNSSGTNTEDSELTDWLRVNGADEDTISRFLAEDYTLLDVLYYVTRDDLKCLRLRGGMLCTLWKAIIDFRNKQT

[6] = target: Serine/threonine-protein kinase 16 (Homo sapiens) (UniProt O75716); test: Inhibition of human MPSK1 in HL-60 cells lysate assessed as reduction of labeling of acyl-phosphate ATP probe at 100 nM
Serine/threonine-protein kinase 16 (Homo sapiens), sequence (O75716 whole entry): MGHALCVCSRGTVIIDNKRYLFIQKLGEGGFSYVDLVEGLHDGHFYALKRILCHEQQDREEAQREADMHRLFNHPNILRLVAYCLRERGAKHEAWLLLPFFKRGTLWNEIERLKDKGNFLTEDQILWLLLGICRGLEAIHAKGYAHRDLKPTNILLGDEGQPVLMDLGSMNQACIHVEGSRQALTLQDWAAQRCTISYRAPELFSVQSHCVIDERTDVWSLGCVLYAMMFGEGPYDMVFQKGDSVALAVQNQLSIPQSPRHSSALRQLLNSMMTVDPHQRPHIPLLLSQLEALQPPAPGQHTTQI

[7] = target: Cyclin-dependent kinase 2 (Homo sapiens) (UniProt P24941); test: Inhibition of human CDK2 in HL-60 cells lysate assessed as reduction of labeling of acyl-phosphate ATP probe at 100 nM
[8] = target: Mitogen-activated protein kinase kinase kinase kinase 4 (Homo sapiens) (UniProt O95819); test: Inhibition of human ZC1/HGK in HL-60 cells lysate assessed as reduction of labeling of acyl-phosphate ATP probe at 100 nM
Mitogen-activated protein kinase kinase kinase kinase 4 (Homo sapiens), sequence (O95819 2-1239 limits assumed): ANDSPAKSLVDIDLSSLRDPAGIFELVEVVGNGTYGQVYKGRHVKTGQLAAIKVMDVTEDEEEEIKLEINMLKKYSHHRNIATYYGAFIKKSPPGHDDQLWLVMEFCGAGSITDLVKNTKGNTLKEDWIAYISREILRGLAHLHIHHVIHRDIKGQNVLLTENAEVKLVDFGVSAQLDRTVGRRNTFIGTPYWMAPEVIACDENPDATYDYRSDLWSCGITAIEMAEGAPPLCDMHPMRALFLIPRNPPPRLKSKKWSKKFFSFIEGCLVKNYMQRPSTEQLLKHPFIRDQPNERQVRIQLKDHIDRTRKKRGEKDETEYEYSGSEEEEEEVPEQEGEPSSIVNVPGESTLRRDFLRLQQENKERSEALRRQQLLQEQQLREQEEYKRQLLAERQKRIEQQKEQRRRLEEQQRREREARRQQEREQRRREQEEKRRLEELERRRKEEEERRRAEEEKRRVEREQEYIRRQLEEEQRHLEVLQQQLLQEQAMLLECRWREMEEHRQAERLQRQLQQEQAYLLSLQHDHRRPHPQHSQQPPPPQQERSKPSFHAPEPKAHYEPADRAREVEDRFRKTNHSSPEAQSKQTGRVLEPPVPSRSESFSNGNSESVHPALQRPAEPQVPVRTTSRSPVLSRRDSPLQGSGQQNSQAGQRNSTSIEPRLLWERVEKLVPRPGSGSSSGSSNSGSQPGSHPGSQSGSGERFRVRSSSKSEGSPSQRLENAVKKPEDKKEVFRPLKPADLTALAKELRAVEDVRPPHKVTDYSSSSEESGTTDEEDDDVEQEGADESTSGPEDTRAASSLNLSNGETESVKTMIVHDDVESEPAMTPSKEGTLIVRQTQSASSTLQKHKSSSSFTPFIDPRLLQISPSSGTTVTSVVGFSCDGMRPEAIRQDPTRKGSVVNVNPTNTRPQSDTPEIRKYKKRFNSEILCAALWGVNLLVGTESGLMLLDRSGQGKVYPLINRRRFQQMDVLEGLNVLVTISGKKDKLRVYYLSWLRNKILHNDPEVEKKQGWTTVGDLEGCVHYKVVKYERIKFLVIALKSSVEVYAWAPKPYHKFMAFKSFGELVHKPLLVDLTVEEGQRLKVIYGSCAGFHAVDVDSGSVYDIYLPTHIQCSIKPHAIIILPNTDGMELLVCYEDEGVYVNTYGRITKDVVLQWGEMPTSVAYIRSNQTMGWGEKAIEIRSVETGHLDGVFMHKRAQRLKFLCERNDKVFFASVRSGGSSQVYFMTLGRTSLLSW

[9] = target: Mitogen-activated protein kinase kinase kinase 1 (Homo sapiens) (UniProt Q13233); test: Inhibition of human MAP3K1 in HL-60 cells lysate assessed as reduction of labeling of acyl-phosphate ATP probe at 100 nM
Mitogen-activated protein kinase kinase kinase 1 (Homo sapiens), sequence (Q13233 whole entry): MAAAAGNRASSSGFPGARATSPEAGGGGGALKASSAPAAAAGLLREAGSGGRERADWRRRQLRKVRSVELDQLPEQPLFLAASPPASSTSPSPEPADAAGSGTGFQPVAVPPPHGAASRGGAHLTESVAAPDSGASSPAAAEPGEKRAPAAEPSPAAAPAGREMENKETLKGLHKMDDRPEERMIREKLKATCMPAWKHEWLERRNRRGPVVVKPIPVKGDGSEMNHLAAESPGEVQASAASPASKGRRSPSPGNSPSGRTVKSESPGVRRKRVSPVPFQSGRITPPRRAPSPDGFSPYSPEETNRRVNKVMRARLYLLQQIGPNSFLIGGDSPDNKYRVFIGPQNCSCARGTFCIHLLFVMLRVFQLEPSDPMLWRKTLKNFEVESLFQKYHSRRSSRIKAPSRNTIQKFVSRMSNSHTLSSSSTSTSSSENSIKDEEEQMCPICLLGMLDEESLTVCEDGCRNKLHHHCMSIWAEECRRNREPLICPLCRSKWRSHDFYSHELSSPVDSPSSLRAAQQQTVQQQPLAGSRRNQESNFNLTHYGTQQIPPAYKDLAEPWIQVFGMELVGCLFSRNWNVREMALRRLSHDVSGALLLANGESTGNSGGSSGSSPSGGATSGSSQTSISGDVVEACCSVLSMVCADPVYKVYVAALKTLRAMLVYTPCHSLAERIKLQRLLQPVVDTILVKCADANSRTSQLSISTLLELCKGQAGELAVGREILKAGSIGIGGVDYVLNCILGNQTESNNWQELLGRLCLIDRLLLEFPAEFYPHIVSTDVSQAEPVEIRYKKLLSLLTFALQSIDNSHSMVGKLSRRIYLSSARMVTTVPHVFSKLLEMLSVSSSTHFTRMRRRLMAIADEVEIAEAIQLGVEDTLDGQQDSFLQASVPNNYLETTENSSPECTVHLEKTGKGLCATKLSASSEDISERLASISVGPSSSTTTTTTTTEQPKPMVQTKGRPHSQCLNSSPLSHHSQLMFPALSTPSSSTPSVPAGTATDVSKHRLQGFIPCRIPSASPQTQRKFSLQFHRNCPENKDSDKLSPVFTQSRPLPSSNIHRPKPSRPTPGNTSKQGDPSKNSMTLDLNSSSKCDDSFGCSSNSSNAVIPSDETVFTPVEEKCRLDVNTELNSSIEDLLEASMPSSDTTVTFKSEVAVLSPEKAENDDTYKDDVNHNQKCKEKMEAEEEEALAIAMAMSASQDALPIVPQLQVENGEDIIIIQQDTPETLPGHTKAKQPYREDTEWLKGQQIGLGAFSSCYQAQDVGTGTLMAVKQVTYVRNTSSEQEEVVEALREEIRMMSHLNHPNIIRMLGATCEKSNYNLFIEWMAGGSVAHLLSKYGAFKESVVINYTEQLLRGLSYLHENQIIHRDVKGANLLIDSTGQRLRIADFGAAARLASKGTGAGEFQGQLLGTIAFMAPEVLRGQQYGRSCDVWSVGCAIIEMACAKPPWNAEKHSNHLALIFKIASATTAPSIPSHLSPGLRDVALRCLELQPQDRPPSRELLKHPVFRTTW

Measured: inhibition

C[C@H]1COc2c(NCCCn3cccn3)c(F)c(N)c3c(=O)c(C(=O)O)cn1c23
< 35%: all assays above

C[C@H]1COc2c(NCCCc3ccccn3)c(F)c(N)c3c(=O)c(C#N)cn1c23
< 35%: all assays above

C[C@H]1COc2c(NCCCn3cccn3)c(F)c(N)c3c(=O)c(C#N)cn1c23
< 35%: all assays above

C[C@H]1COc2c(NCCCc3ccccn3)c(F)c(N)c3c(=O)c(C(=O)O)cn1c23
< 35%: all assays above
